Experimental data from paper PMC2680759, “Non-Invasive Molecular Imaging of Fibrosis Using a Collagen-Targeted Peptidomimetic of the Platelet Collagen Receptor Glycoprotein VI” (PLoS ONE, 2009).
Values belong to the molecule of their own block, whether it stands above or below them.

How the values were obtained:
[1] = target: 9O12.2 IgG; experiment: SPR, 9O12.2 IgG injected over immobilized B-collagelin; format: binding
Description: 9O12.2 IgG was injected over biotin-peptides coupled to an SA-sensorchip in a Biacore 2000 instrument. […] In some experiments, the peptide was reduced by DTT on the sensor chip before the IgG was injected. Competition experiments were performed by mixing the IgG with recombinant soluble GPVI (25 µg.mL^−1). Collagen binding to the peptide was analyzed by injecting type-I collagen (200 µg.mL^−1) onto the peptide-coated sensorchip. Conversely, biotin-peptides (125, 250, 500 and 1000 µg.mL^−1) were perfused over fibrillar collagen immobilized on a CM5-sensorchip.

[2] = test system: collagen in sections of rat aorta and tail tendon; experiment: Histochemical analysis of rat aorta and tail tendon sections; conditions: frozen sections of rat aorta and tail tendon, biotin-peptide 200 µg/mL, HRP-coupled streptavidin
Description: Sections were counter-stained with hematoxylin-eosin (Merck). Collagen was stained using picrosirius red. Sections ([…]) of rat tail tendon were processed as above.

[3] = target: fibrillar type I collagen (Homo sapiens, UniProt P02452+P08123); experiment: Solid phase assay on collagen-coated microtitration plates; format: binding; conditions: n = 3
fibrillar type I collagen, sequence (P02452 162-1218 limits assumed): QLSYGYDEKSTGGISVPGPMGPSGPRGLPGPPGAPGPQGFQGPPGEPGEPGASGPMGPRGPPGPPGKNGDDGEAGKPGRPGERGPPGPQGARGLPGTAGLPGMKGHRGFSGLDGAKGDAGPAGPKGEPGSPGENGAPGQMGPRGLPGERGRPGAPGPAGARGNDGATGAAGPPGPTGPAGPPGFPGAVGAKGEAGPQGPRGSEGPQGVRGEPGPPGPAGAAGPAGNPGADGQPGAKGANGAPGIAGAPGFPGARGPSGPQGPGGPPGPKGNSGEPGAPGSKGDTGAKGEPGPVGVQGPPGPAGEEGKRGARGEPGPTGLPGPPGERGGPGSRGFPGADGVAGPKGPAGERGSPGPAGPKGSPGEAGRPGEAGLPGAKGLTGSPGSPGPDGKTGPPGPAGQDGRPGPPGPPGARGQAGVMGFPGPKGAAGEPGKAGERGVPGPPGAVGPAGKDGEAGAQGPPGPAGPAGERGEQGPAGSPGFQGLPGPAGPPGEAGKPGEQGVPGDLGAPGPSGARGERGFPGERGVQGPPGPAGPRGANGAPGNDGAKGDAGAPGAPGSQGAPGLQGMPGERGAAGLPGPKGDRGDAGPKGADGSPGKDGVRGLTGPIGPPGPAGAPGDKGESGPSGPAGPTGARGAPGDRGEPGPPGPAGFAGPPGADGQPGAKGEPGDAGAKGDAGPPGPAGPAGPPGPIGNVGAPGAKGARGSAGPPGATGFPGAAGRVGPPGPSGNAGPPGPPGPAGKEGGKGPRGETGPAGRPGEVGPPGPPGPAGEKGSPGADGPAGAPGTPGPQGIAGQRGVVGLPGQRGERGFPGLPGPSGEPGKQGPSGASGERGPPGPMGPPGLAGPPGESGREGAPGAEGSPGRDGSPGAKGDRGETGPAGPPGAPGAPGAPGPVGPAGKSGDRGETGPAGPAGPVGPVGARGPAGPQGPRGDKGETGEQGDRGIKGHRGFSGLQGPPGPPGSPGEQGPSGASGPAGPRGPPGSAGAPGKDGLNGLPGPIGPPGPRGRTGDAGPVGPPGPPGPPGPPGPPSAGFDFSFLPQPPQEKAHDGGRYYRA
fibrillar type I collagen, sequence (P08123 80-1119 limits assumed): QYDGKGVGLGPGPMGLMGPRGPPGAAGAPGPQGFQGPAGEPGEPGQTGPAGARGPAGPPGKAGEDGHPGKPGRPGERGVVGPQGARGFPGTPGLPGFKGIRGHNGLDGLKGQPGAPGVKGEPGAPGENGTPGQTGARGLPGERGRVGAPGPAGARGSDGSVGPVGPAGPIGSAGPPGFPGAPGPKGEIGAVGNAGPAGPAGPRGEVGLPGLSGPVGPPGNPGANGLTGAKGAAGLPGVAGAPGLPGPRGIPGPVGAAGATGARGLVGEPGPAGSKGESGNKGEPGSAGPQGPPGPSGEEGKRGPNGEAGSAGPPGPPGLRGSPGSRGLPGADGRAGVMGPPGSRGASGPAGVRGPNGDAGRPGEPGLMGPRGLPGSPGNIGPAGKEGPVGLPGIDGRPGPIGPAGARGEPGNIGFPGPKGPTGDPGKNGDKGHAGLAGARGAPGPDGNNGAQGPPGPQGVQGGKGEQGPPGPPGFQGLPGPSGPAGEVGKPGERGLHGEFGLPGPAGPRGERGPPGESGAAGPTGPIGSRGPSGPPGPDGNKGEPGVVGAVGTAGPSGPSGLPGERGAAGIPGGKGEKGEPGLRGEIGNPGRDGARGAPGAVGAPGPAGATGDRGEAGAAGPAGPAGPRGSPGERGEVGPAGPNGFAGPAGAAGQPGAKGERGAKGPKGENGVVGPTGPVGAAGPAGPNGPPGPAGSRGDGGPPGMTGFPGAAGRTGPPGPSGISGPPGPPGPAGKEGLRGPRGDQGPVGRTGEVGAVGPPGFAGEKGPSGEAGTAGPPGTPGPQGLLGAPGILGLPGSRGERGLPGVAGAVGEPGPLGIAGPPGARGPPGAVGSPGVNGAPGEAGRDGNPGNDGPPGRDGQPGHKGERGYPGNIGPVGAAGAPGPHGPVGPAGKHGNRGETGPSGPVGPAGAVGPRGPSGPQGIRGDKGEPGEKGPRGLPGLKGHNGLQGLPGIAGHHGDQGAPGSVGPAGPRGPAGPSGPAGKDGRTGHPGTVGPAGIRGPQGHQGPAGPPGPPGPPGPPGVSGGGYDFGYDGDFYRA
Description: Biotin-peptides (50 µg.mL^−1) were incubated on microtitration wells, coated with 1 µg of type-I collagen, convulxin, collagen related peptides, bovine fibrinogen, human fibronectin, rat vitronectin, murine laminin or bovine serum albumin. Bound peptides were detected using HRP-coupled extravidin and the HRP substrate O-phenyl-dianisidine.

[4] = test system: collagen fibers of the infarct scars; experiment: Post mortem autoradiography of frozen myocardial sections; format: in vivo, rat; conditions: directly Tc-99m-labeled peptides, frozen myocardial sections
Description: After sacrificing the animals, the heart was removed and frozen, then 20-micrometer thick myocardial sections were cut perpendicular to the short axis of the ventricles in a cryostat, and exposed in a radioimager for 16 h. According to calibration studies performed with activity standards of tissue-equivalent homogenates, 50 counts/mm^2 of ^99m Tc-labeled tracers corresponded to ∼210 kBq/mg in autoradiography. The myocardial sections used for autoradiography, and contiguous heart sections (5 µm) fixed in acetone (−20°C), were stained with hematoxylin-eosin, Masson's trichrome and picrosirius red to determine the location and extent of the fibrotic myocardial scarring.

[5] = in vivo; conditions: rat, iv
Description: (§1) Two types of control animals were used: healthy rats, and healthy rats which had undergone a simple throracotomy (sham-operated). ^99mTc-biotin-collagelin blood kinetics and biodistribution were investigated by counting blood samples (taken from a jugular catheter) for 6 h after i.v. injection, and organs (extracted after sacrifice) 2 h after injection in a gamma-counter, together with aliquots of the injected preparation (CobraII, Packard, Meriden, USA). Ex vivo myocardial labeling and isotopic imaging were performed 4 weeks after the coronary ligature (or throracotomy), when the lesions had had the time to heal.

[6] = test system: fibrotic myocardial infarction scar; format: in vivo, rat; conditions: directly labeled tracer
Description: Myocardial infarction of the left ventricle was induced in rats as follows. Male Wistar rats (CERJ, France) were housed in a controlled environment and fed with a standard rat chow. Myocardial infarction of the left ventricle was induced by ligature of the left descending coronary artery performed under general anesthesia [1 mL.kg^−1 i.p. ketamine (Imalgene 500, Merial) and 0.5 mL.kg^−1 i.p. xylazine (Rompun, Bayer)] and positive pressure ventilation, as described. This protocol was performed under a permit from the French Veterinary Services Directorate.
as §1
For in vivo experiments, radiotracers (70 MBq) were administered i.v. to anesthetized animals (pentobarbital i.p. 6 mg/100 g BW, Ceva Santé Animale, France) within 2 h of radiolabeling. Scintigraphic images were obtained 0–2 h, 4 h, 6 h, 10 h and 24 h after injecting ^99mTc-streptavidin-biotin peptides and 0–3 h after injecting ^99mTc-biotinylated peptides. Planar and tomographic 1-h acquisitions were performed using a dedicated small animal γIMAGER system (Biospace Lab, Paris, France) equipped with 2 parallel low-energy high-resolution collimators (matrix 128×128, 15% energy window centered on 140 KeV). Tracer uptake in the left cardiac area was assessed visually. Two regions of interest were drawn on the scintigrams, over the heart and over the right lung. The mean activity (cpm) per pixel was determined in each region of interest. Then heart-to-lung activity ratios (HLR) were calculated on both planar and transversal tomographic images.

[7] = test system: rat myocardial scar sections; experiment: Ex vivo incubation of myocardial scar sections with radiotracers; conditions: directly Tc-99m-labeled peptides, 120 MBq/ml RPMI, 2 h, p<0.05
Description: Rat aorta and rat myocardial scar sections were incubated in the presence of ^99mTc-biotin-collagelin, +/−9012 moAb, or ^99mTc-biotin-control peptide Pc (120 MBq/ml of RPMI) for 2 h. The tissues were then rinsed 5 times for periods of 1 minute, and exposed to the gamma-camera as well as to the instant imager for quantitative autoradiography (Instant Imager, Packard) for 15 h.

[8] = target: murine laminin (murine) (UniProt P19137); experiment: SPR; collagelin and laminin

Kd ([1]; read-out: KD of 9O12.2 IgG binding to immobilized B-collagelin, SPR, Biacore 2000, biotin-peptide on SA-sensorchip, IgG 1.25 to 10 µg/mL, KD = koff/kon): 1 µM | Binding to collagen-coated plates ([3]; peptide 50 µg/mL, HRP-coupled extravidin detection): bound
Molecule: SGSGCPGRVMHGLHLGDDEGPC (disulfide) [B-collagelin]
Histochemical staining of tissue collagen [2]: Positive and specific brown staining

Effect on binding of 9O12.2 IgG to collagelin ([1]; SPR competition, IgG 5 µg/ml mixed with recombinant soluble GPVI 25 µg/ml): inhibited | Inhibition of B-collagelin binding to collagen-coated plates ([3]; competitor 50 µg/mL mixed with B-collagelin 50 µg/mL): completely inhibited
B1: GPVI-Fc: soluble recombinant GPVI, extracellular part of GPVI fused to the IgG Fc domain (protein)
chain: QSGPLPKPSLQALPSSLVPLEKPVTLRCQGPPGVDLYRLEKLSSSRYQDQAVLFIPAMKRSLAGRYRCSYQNGSLWSLPSDQLELVATGVFAKPSLSAQPGPAVSSGGDVTLQCQTRYGFDQFALYKEGDPAPYKNPERWYRASFPIITVTAAHSGTYRCYSFSSRDPYLWSAPSDPLELVVTGTSVTPSRLPTEPPSPVAEFSEATAELTVSFTNEVFTTETSRSITASPKESDSPAGPARQYYTK
modifications: left off: Fc (IgG), end not stated, kept
notes: soluble recombinant GPVI, extracellular part of GPVI fused to the IgG Fc domain

The remaining lines, values behind:

Molecule: CSCC[C@@H]1NC(=O)[C@H](C(C)C)NC(=O)[C@H](CCCNC(=N)N)NC(=O)CNC(=O)[C@@H]2CCCN2C(=O)[C@@H](NC(=O)CNC(=O)[C@H](CO)NC(=O)CNC(=O)[C@H](CO)NC(=O)CCCC[C@@H]2SC[C@@H]3NC(=O)N[C@@H]32)CSSC[C@@H](C(N)=O)NC(=O)[C@@H]2CCCN2C(=O)CNC(=O)[C@H](CCC(=O)O)NC(=O)[C@H](CC(=O)O)NC(=O)[C@H](CC(=O)O)NC(=O)CNC(=O)[C@H](CC(C)C)NC(=O)[C@H](Cc2c[nH]cn2)NC(=O)[C@H](CC(C)C)NC(=O)CNC(=O)[C@H](Cc2c[nH]cn2)NC1=O [^99mTc-collagelin, metal not drawn]
Autoradiographic labeling of the scar [4]: coincided with the collagen fibers of the scars | Blood clearance half life [5]: 5 ± 0.5 min | tissue uptake at 2 h ([5]; 1 nmol, total radioactivity): 0.36 %ID/g | Tracer uptake in the cardiac area, sham-operated rats ([6]; n = 6): No tracer uptake | Probe uptake in the cardiac area, rats with MI scars ([6]; planar and SPECT images two hours after injection, all but one of the rats, n = 8): significant uptake | Ex vivo uptake in scarred tissue of myocardial sections [7]: accumulated in the scarred tissue

Molecule: B-collagelin (collagelin conjugated with biotin) (peptide)
Kd [8]: 18.3 µM
